Results: ChEMBL document CHEMBL5233217, “Modification of 7-piperazinylquinolone antibacterials to promising anticancer lead compounds: Synthesis and in vitro studies” (Eur J Med Chem, 2020)

Legend:
[1] = Cytotoxicity against Chinese hamster CHO cells assessed as reduction in cell viability by MTT assay; format: toxicity, cell-based, Cricetulus griseus
HL-60 [2] = experiment: Cytotoxicity against human HL-60 cells assessed as reduction in cell viability by MTT assay; format: functional, cell-based
L1210 = experiment: Cytotoxicity against mouse L1210 cells assessed as reduction in cell viability by MTT assay; format: functional, cell-based
A549 [3] = experiment: Anticancer activity against human A549 cells assessed as reduction in cell viability incubated for 72 hrs by MTT assay; format: functional, cell-based; conditions: A549, 72 h
HL-60 [4] = experiment: Anticancer activity against human HL-60 cells assessed as reduction in cell viability incubated for 72 hrs by MTT assay; format: functional, cell-based; conditions: HL-60, 72 h
HeLa = experiment: Anticancer activity against human HeLa cells assessed as reduction in cell viability incubated for 72 hrs by MTT assay; format: functional, cell-based
SK-MEL3 = experiment: Anticancer activity against human SK-MEL3 cells assessed as reduction in cell viability incubated for 72 hrs by MTT assay; format: functional, cell-based; conditions: SK-MEL3, 72 h
MCF7 = experiment: Anticancer activity against human MCF7 cells assessed as reduction in cell viability incubated for 72 hrs by MTT assay; format: functional, cell-based; conditions: MCF7, 72 h
A-431 = experiment: Anticancer activity against human A-431 cells assessed as reduction in cell viability incubated for 72 hrs by MTT assay; format: functional, cell-based; conditions: A-431, 72 h
EJ = experiment: Anticancer activity against human EJ cells assessed as reduction in cell viability incubated for 72 hrs by MTT assay; format: functional, cell-based
KB = experiment: Anticancer activity against human KB cells assessed as reduction in cell viability incubated for 72 hrs by MTT assay; format: functional, cell-based
SW480 = experiment: Anticancer activity against human SW480 cells assessed as reduction in cell viability incubated for 72 hrs by MTT assay; format: functional, cell-based; conditions: SW480, 72 h
[5] = test system: Panel NCI-60 (60 carcinoma cell lines); experiment: Anticancer activity against human Panel NCI-60 (60 carcinoma cell lines) cells assessed as cell growth inhibition incubated for 48 hrs by sulforhodamine B assay; format: functional
CT26 = experiment: Antitumor activity against mouse CT26 cells assessed as reduction in cell viability incubated for 4 hrs by MTT assay; format: functional, cell-based; conditions: CT26, 4 h
A549 [6] = experiment: Antitumor activity against human A549 cells assessed as reduction in cell viability incubated for 4 hrs by MTT assay; format: functional, cell-based; conditions: A549, 4 h

O=C(N/N=C/c1ccc([N+](=O)[O-])cc1)c1cn(C2CC2)c2cc(N3CCNCC3)c(F)cc2c1=O
IC50 [1]: 25 µM
IC50 (HL-60 [2]): 25 µM
IC50 (L1210): 25 µM

N=C(NS(=O)(=O)c1ccc(Cl)cc1)N1CCN(c2cc3c(cc2F)c(=O)c(C(=O)O)cn3C2CC2)CC1
IC50 (A549 [3]): 0.071 µM
IC50 (HL-60 [4]): 0.043 µM
IC50 (HeLa): 0.032 µM

N=C(NS(=O)(=O)c1ccc(C(F)(F)F)cc1)N1CCN(c2cc3c(cc2F)c(=O)c(C(=O)O)cn3C2CC2)CC1
IC50 (A549 [3]): 0.071 µM
IC50 (HL-60 [4]): 0.043 µM
IC50 (HeLa): 0.032 µM

COc1ccc(/C=N/NC(=O)c2cn(C3CC3)c3cc(N4CCNCC4)c(F)cc3c2=O)cc1O
IC50 [1]: 25 µM
IC50 (HL-60 [2]): 25 µM
IC50 (L1210): 25 µM

COc1ccc(/C=N/NC(=O)c2cn(C3CC3)c3cc(N4CCNCC4)c(F)cc3c2=O)cc1
IC50 [1]: 25 µM
IC50 (HL-60 [2]): 25 µM
IC50 (L1210): 25 µM

O=C(O)c1cn(C2CC2)c2cc(N3CCN(C/C(=N/OCc4ccccc4)c4ccc(Cl)s4)CC3)c(F)cc2c1=O
IC50 (SK-MEL3): < 10 µM
IC50 (MCF7): < 10 µM
IC50 (A-431): < 10 µM
IC50 (EJ): < 10 µM
IC50 (KB): < 10 µM
IC50 (SW480): < 10 µM

O=C(N/N=C/c1ccccc1)c1cn(C2CC2)c2cc(N3CCNCC3)c(F)cc2c1=O
IC50 [1]: 25 µM
IC50 (HL-60 [2]): 25 µM
IC50 (L1210): 25 µM

O=c1[nH]cc(F)c(=O)[nH]1 [FLUOROURACIL]
GI50 [5]: 22.6 µM

CCn1cc(C(=O)O)c(=O)c2cc(F)c(N3CCN(C(=N)NS(=O)(=O)c4ccc(Cl)cc4)CC3)cc21
IC50 (A549 [3]): 0.071 µM
IC50 (HL-60 [4]): 0.043 µM
IC50 (HeLa): 0.032 µM

CCn1cc(C(=O)O)c(=O)c2cc(F)c(N3CCN(C/C(=N/O)c4ccc(Cl)s4)CC3)cc21
IC50 (SK-MEL3): < 10 µM
IC50 (MCF7): < 10 µM
IC50 (A-431): < 10 µM
IC50 (EJ): < 10 µM
IC50 (KB): < 10 µM
IC50 (SW480): < 10 µM

CCn1cc(C(=O)O)c(=O)c2cc(F)c(N3CCNCC3)nc21 [ENOXACIN]
IC50 (SK-MEL3): > 128 µM
IC50 (MCF7): > 128 µM
IC50 (A-431): > 128 µM
IC50 (EJ): > 128 µM
IC50 (KB): > 128 µM
IC50 (SW480): > 128 µM

CCn1cc(C(=O)O)c(=O)c2cc(F)c(N3CCN(CC(=O)c4ccc(Cl)s4)CC3)cc21
IC50 (SK-MEL3): < 10 µM
IC50 (MCF7): < 10 µM
IC50 (A-431): < 10 µM
IC50 (EJ): < 10 µM
IC50 (KB): < 10 µM
IC50 (SW480): < 10 µM

CCn1cc(C(=O)O)c(=O)c2cc(F)c(N3CCN(C(=N)NS(=O)(=O)c4ccccc4C(F)(F)F)CC3)cc21
IC50 (A549 [3]): 0.071 µM
IC50 (HL-60 [4]): 0.043 µM
IC50 (HeLa): 0.032 µM

CCn1cc(C(=O)O)c(=O)c2cc(F)c(N3CCN(CP(c4ccccc4)c4ccccc4)CC3)cc21
IC50 (CT26): 150 µM
IC50 (A549 [6]): 150 µM

CCn1cc(C(=O)O)c(=O)c2cc(F)c(N3CCN(C(=N)NS(=O)(=O)c4ccccc4)CC3)cc21
IC50 (A549 [3]): 0.071 µM
IC50 (HL-60 [4]): 0.043 µM
IC50 (HeLa): 0.032 µM

Cc1ccc(S(=O)(=O)NC(=N)N2CCN(c3cc4c(cc3F)c(=O)c(C(=O)O)cn4C3CC3)CC2)cc1
IC50 (A549 [3]): 0.071 µM
IC50 (HL-60 [4]): 0.043 µM
IC50 (HeLa): 0.032 µM

O=C(O)c1cn(C2CC2)c2cc(N3CCN(C/C(=N/O)c4ccc(Cl)s4)CC3)c(F)cc2c1=O
IC50 (SK-MEL3): < 10 µM
IC50 (MCF7): < 10 µM
IC50 (A-431): < 10 µM
IC50 (EJ): < 10 µM
IC50 (KB): < 10 µM
IC50 (SW480): < 10 µM

C#Cc1cccc(Nc2ncnc3cc(OCCOC)c(OCCOC)cc23)c1 [ERLOTINIB]
GI50 [5]: 7.29 µM

CCn1cc(C(=O)O)c(=O)c2cc(F)c(N3CCN(S(=O)(=O)c4cccc5ccccc45)CC3)cc21
GI50 [5]: 2.63 µM

O=C(N/N=C/c1ccccc1O)c1cn(C2CC2)c2cc(N3CCNCC3)c(F)cc2c1=O
IC50 [1]: 25 µM
IC50 (HL-60 [2]): 25 µM
IC50 (L1210): 25 µM

CCn1cc(C(=O)O)c(=O)c2cc(F)c(N3CCN(C(=N)NS(=O)(=O)c4cccc(Cl)c4)CC3)cc21
IC50 (A549 [3]): 0.071 µM
IC50 (HL-60 [4]): 0.043 µM
IC50 (HeLa): 0.032 µM

O=C(N/N=C/c1ccc(F)cc1)c1cn(C2CC2)c2cc(N3CCNCC3)c(F)cc2c1=O
IC50 [1]: 25 µM
IC50 (HL-60 [2]): 25 µM
IC50 (L1210): 25 µM

O=C(O)c1cn(C2CC2)c2cc(N3CCN(CP(=[Se])(c4ccccc4)c4ccccc4)CC3)c(F)cc2c1=O
IC50 (CT26): 150 µM
IC50 (A549 [6]): 150 µM

Cc1cc(C)c(S(=O)(=O)N2CCN(c3cc4c(cc3F)c(=O)c(C(=O)O)cn4C3CC3)CC2)c(C)c1
GI50 [5]: 2.63 µM

CCn1cc(C(=O)O)c(=O)c2cc(F)c(N3CCN(C(=N)NS(=O)(=O)c4ccccc4Cl)CC3)cc21
IC50 (A549 [3]): 0.071 µM
IC50 (HL-60 [4]): 0.043 µM
IC50 (HeLa): 0.032 µM
